The term IC50 denotes the point on the concentration scale where inhibition reaches its midpoint.

The results in this text go back to US11578061B2, “Inhibitors of LRRK2 kinase” (Halia Therapeutics, Inc., priority 2021, dated 2023).

Bounds are passed on as bounds.

For the experiment, the target named is recombinant human LRRK2 (catalytic domain only [amino acids 970-2527], GST-tagged) (Homo sapiens (Human), UniProt Q5S007). Description: LRRK2 Enzymatic Assay. Format: biochemical. The following applies: LRRKtide substrate, [32P]-ATP. The essentials: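 Radiometric P81 filter-binding read-out of [32P]-ATP transfer to LRRKtide (20 μM) by 30 nM GST-LRRK2 970-2527, 2 h at room temperature after 20 min compound preincubation (10 μM–0.5 nM, 1% DMSO). IC50 derived from % remaining activity versus DMSO.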
Sequence of recombinant human LRRK2 (catalytic domain only [amino acids 970-2527], GST-tagged) (Q5S007 970-2527): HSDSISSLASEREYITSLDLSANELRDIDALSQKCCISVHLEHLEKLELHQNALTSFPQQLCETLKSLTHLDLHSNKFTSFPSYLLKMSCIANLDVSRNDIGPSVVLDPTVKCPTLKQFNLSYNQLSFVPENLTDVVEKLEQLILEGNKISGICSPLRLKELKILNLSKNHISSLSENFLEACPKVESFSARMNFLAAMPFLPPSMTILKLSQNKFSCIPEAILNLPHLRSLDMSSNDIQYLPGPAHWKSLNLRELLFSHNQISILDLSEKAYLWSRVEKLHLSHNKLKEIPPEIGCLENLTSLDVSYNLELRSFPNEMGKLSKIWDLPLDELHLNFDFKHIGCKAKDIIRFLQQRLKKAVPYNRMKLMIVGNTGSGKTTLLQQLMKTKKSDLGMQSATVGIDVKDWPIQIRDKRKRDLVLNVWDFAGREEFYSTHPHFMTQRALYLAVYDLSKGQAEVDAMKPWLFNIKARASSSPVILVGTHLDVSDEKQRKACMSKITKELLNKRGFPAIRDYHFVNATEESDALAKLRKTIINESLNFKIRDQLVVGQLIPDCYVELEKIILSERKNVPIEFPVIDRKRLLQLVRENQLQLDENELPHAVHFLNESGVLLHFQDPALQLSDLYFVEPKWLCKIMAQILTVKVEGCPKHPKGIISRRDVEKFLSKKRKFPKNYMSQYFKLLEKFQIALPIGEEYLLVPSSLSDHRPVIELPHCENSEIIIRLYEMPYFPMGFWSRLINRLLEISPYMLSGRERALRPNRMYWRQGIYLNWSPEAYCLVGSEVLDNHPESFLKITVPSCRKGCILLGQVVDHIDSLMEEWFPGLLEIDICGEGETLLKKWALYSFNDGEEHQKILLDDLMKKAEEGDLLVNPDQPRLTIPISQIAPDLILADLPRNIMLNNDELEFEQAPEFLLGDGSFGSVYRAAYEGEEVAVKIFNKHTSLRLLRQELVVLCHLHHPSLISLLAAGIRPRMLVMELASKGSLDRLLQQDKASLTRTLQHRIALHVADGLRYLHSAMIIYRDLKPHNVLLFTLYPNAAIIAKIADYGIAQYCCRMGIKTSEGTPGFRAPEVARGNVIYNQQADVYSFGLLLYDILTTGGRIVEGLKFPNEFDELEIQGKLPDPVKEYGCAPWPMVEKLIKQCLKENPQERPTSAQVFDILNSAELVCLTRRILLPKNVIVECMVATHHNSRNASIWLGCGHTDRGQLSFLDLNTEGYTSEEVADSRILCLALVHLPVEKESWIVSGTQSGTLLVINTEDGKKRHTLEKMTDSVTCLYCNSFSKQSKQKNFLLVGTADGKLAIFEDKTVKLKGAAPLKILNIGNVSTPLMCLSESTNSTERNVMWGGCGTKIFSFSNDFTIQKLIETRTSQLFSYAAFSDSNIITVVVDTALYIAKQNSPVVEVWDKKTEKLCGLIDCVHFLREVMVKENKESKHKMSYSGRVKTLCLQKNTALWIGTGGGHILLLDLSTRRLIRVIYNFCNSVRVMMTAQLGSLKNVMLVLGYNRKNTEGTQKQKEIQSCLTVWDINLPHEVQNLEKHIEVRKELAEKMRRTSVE

As to `Cc1nn(C(C)(C)C#N)cc1Nc1ncc(Cl)c(OCC2COC2)n1` [Example 158, 2-(4-((5-chloro-4-(oxetan-3-ylmethoxy)pyrimidin-2-yl)amino)-3-methyl-1H-pyrazol-1-yl)-2-methylpropanenitrile], the IC50 fell in the range of 0.05 to 0.2 µM.

As to `CN[C@H]1CC[C@H](COc2nc(Nc3cn(C(C)(C)C#N)nc3C)ncc2OC)CC1` [Example 37, 2-(4-((5-methoxy-4-(((1R,4R)-4-(methylamino)cyclo-hexyl)methoxy)py-rimidin-2-yl)amino)-3-methyl-1H-pyrazol-1-yl)-2-methylpropanenitrile], the IC50 is less than 0.05 µM.

For the molecule `O[C@H]1CC[C@H](COc2nc(Nc3cnn(C4CCOCC4)c3)ncc2F)CC1` [Example 228, (1R,4R)-4-(((5-fluoro-2-((1-(tetrahydro-2H-pyran-4-yl)-1H-pyrazol-4-yl)amino)pyrimidin-4-yl)oxy)methyl)cyclohexan-1-ol], the IC50 is 0.2 to 0.4 µM.

In the case of `CC(=O)N[C@H]1CC[C@H](COc2nc(Nc3cnn(C4COC4)c3)ncc2F)CC1` [Example 192, N-((1R,4R)-4-(((5-fluoro-2-((1-(oxetan-3-yl)-1H-pyrazol-4-yl)amino)pyrimidin-4-yl)oxy)methyl)cyclo-hexyl)acetamide], the IC50 was 0.05 to 0.2 µM.

On to `CN[C@H]1CC[C@H](COc2nc(Nc3cc(F)c(C(=O)N4CCOCC4)cc3OC)ncc2OC)CC1` [Example 36], for which the IC50 is less than 0.05 µM.

With `COc1nn(C)cc1Nc1ncc(F)c(OC[C@H]2CC[C@H](O)CC2)n1` [Example 243, (1R,4R)-4-(((5-fluoro-2-((3-methoxy-1-methyl-1H-pyrazol-4-yl)amino)pyrimidin-4-yl)oxy)methyl)cyclohexan-1-ol], the IC50 is 0.2 to 0.4 µM.

Turning to `CC(=O)NC1CCCC(COc2nc(Nc3ccc(N4C[C@@H](C)O[C@@H](C)C4)cc3)ncc2F)CC1` (stereo partly drawn) [Example 93, N-(4-(((2-((4-((2S,6R)-2,6-dimethylmorpholino)phenyl)amino)-5-fluoropyrimidin-4-yl)oxy)methyl)cyclo-heptyl)acetamide], the IC50 is less than 0.05 µM.

For `CC(=O)N1CCC(COc2nc(Nc3cn(C(C)(C)C#N)nc3C)ncc2F)C(F)C1` (single isomer, unassigned) [Example 176, 2-(4-((4-((1-acetyl-3-fluoropiperidin-4-yl)methoxy)-5-fluoropyrimidin-2-yl)amino)-3-methyl-1H-pyrazol-1-yl)-2-methylpropanenitrile], the IC50 was 0.2 to 0.4 µM.

Regarding `CC(=O)N[C@H]1CC[C@H](COc2nc(Nc3cnn(C4CCOCC4)c3)ncc2F)CC1` [Example 193, N-((1R,4R)-4-(((5-fluoro-2-((1-(tetrahydro-2H-pyran-4-yl)-1H-pyrazol-4-yl)amino)pyrimidin-4-yl)oxy)methyl)cyclo-hexyl)acetamide], the IC50 is less than 0.05 µM.

With `O[C@H]1CC[C@H](COc2nc(Nc3cnn(C4CC4)c3)ncc2F)CC1` [Example 220, (1R,4R)-4-(((2-((1-cyclopropyl-1H-pyrazol-4-yl)amino)-5-fluoropyrimidin-4-yl)oxy)methyl)cyclohexan-1-ol], the IC50 is 0.05 to 0.2 µM.

On to `CC(C)n1cc(Nc2ncc(F)c(OC[C@H]3CC[C@H](C(C)(C)O)CC3)n2)cn1` [Example 255, 2-((1R,4R)-4-(((5-fluoro-2-((1-isopropyl-1H-pyrazol-4-yl)amino)pyrimidin-4-yl)oxy)methyl)cyclohexyl)propan-2-ol], for which the IC50 lay in the range of 0.05 to 0.2 µM.

In the case of `CC(=O)N[C@H]1CC[C@H](COc2nc(Nc3cnn(C(F)F)c3C)ncc2F)CC1` [Example 200, N-((1R,4R)-4-(((2-((1-(difluoromethyl)-5-methyl-1H-pyrazol-4-yl)amino)-5-fluoropyrimidin-4-yl)oxy)methyl)cyclo-hexyl)acetamide], the IC50 was less than 0.05 µM.

As for `CC(C)n1cc(Nc2ncc(F)c(OC[C@H]3CC[C@H](NC(=O)C(F)(F)F)CC3)n2)cn1` [Example 210, 2,2,2-trifluoro-N-((1R,4R)-4-(((5-fluoro-2-((1-isopropyl-1H-pyrazol-4-yl)amino)pyrimidin-4-yl)oxy)methyl)cyclohexyl) acetamide], the IC50 is less than 0.05 µM.
